Measured values taken from PubChem BioAssay (NCI).
“And” between values parts separate entries of the source, which are not always exact repeats. Identical values can stand only once.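 Grown in 96-well plates, cells were treated for 48 hours with each compound at five concentrations. Insufficient inhibition: endpoint recorded as highest concentration tested. GI50: concentration for 50% inhibition of growth. TGI is the concentration that stops growth completely.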

Experiments:
Test in all cases: NCI anticancer screen, dose series, 48 h
[1] = test system: OVCAR-5 ovarian
[2] = test system: COLO 205 colon
[3] = test system: SF-295 CNS
[4] = test system: HOP-62 NSCLC
[5] = test system: HCT-116 colon
[6] = test system: HOP-92 NSCLC
[7] = test system: LOX IMVI melanoma
[8] = test system: EKVX NSCLC
[9] = test system: UACC-62 melanoma
[10] = test system: SF-268 CNS

| Compound | GI50 [1] | TGI [1] | GI50 [2] | TGI [2] | GI50 [3] | TGI [3] | GI50 [4] | TGI [4] | GI50 [5] | TGI [5] | GI50 [6] | TGI [6] | GI50 [7] | TGI [7] | GI50 [8] | TGI [8] | GI50 [9] | TGI [9] | GI50 [10] | TGI [10] |
| --- | --- | --- | --- | --- | --- | --- | --- | --- | --- | --- | --- | --- | --- | --- | --- | --- | --- | --- | --- | --- |
| C#Cc1cccc(Nc2nc(C)nc3cc(NC(=O)CCl)ccc23)c1 | 0.953 µM | 5.38 µM | 3.26 µM | 7.41 µM | 3.39 µM | 6.86 µM | 3.65 µM | 7.85 µM | 0.654 µM | 2.66 µM | 0.67 µM | 1.89 µM | 0.424 µM | 0.95 µM | 3.13 µM | 7.62 µM | 1.01 µM | 3.81 µM | 2.62 µM | 6.82 µM |
| Cc1ccc(NC(=O)C(=O)C2C(=O)NC(=O)NC2=O)c(C)c1 |  | > 100 µM |  | 26.8 µM |  | > 100 µM |  | > 100 µM |  | > 100 µM |  | > 100 µM |  | > 100 µM |  | > 100 µM |  | > 100 µM |  | > 100 µM |
| CN1C(c2ccccc2)CC(=NO)CC1c1ccccc1 (stereo not drawn) |  | > 100 µM | 33.6 µM | 48 µM | 44.5 µM | > 100 µM |  | > 100 µM | 33.9 µM | 33.6 µM |  | > 100 µM |  | 40.7 µM |  | > 100 µM |  | > 100 µM |  | > 100 µM |
| CCC(CO)Nc1nc(NCc2ccccc2)c2n[nH]c(C(C)C)c2n1 (stereo not drawn) | 13.4 µM | 36 µM | 4.45 µM | 17.1 µM | 16.1 µM | 32.7 µM | 13.9 µM | 31.8 µM | 4.03 µM | 14.5 µM | 3.75 µM | 19.5 µM | 7.55 µM | 20.9 µM | 12.1 µM | 27.4 µM | 11.3 µM | 24.7 µM | 10.7 µM | 26.4 µM |
| CC[C@H](C)[C@H](NC(=O)c1ncccn1)C(=O)N(C)[C@H](C[C@@H](OC(C)=O)c1nc(C(=O)N[C@@H](Cc2ccccc2)C[C@H](C)C(=O)OC)cs1)C(C)C | 5.07 µM | > 25 µM | 1.01 µM | 4.97 µM | 2.11 µM | 16.7 µM | 1.73 µM | > 25 µM | 0.929 µM | > 25 µM | 4.36 µM | > 25 µM | 1.46 µM | > 25 µM | 4.62 µM | > 25 µM | 0.848 µM | > 25 µM | 2.21 µM | > 25 µM |
| CC1(C)CC[C@]2(C(=O)NCCNCCN)CC[C@]3(C)C(=CC[C@@H]4[C@@]5(C)CCC(=O)C(C)(C)[C@@H]5CC[C@]43C)[C@@H]2C1 | 1.98 µM | 4.56 µM | 2.06 µM | 4.18 µM | 1.83 µM | 3.39 µM | 2.05 µM | 4.13 µM | 1.75 µM | 3.21 µM | 1.47 µM | 4.4 µM | 1.81 µM | 3.26 µM | 1.74 µM | 3.67 µM | 1.69 µM | 3.14 µM | 1.89 µM | 4.06 µM |
| Cc1cccc2c(=O)c3c(sc12)c(NCCCN)nc1ccccc13 | 1.56 µM | 3.03 µM | 1.56 µM | 3.23 µM | 1.75 µM | 3.29 µM | 1.24 µM | 2.79 µM | 1.48 µM | 2.91 µM | 1.53 µM | 5.12 µM | 1.46 µM | 2.98 µM | 1.58 µM | 3.14 µM | 1.6 µM | 3.06 µM | 1.53 µM | 3.17 µM |
| COc1ccc2c(c1)c1ccc3c(c1n2C)C(=O)C=CC3=O |  | 35 µM |  | 19.8 µM |  | 56.9 µM |  | 66.5 µM |  | 14 µM |  | 14.5 µM |  | 14.9 µM |  | 35.7 µM |  | 29.3 µM |  | 31.8 µM |
| C=C[C@@H]1CCC/C=C/[C@@H]2C[C@H](O)C[C@H]2[C@H](O)/C=C/C(=O)O1 | 0.664 µM | > 100 µM | 0.224 µM | 0.441 µM | 0.912 µM | > 100 µM | 1.33 µM | > 100 µM | 0.866 µM | 2.49 µM | 0.702 µM | 5.95 µM | 0.269 µM | 0.815 µM | 0.543 µM | > 100 µM | 0.545 µM | > 100 µM | 0.44 µM | > 100 µM |
| COc1cccc(C2SC(C)C(=O)N2NC(=O)C(O)c2ccccc2)c1 (stereo not drawn) | > 100 µM | > 100 µM | > 100 µM | > 100 µM | > 100 µM | > 100 µM | > 100 µM | > 100 µM | > 100 µM | > 100 µM | > 100 µM | > 100 µM | > 100 µM | > 100 µM | > 100 µM | > 100 µM | > 100 µM | > 100 µM | > 100 µM | > 100 µM |
| COC(=O)C(/C(=N/N)C(=O)Nc1cc(Cl)ccc1Cl)c1nc2ccc([N+](=O)[O-])cc2[nH]c1=O (stereo not drawn) |  | > 100 µM |  | > 100 µM |  | > 100 µM |  | > 100 µM |  | > 100 µM |  | > 100 µM |  | > 100 µM |  | > 100 µM |  | > 100 µM |  | > 100 µM |
| COc1ccc(Cc2ccc3[nH]c(=O)cc(C)c3c2)cc1S(=O)(=O)O |  | > 100 µM |  | > 100 µM |  | > 100 µM |  | > 100 µM |  | > 100 µM |  | > 100 µM |  | > 100 µM |  | > 100 µM |  | > 100 µM |  | > 100 µM |
| O=[N+]([O-])c1cc(I)cc(/C=N/NS(=O)(=O)c2ccc(F)cc2)c1O |  | > 100 µM |  | 32.4 µM |  | 98.2 µM |  | 55.8 µM |  | 43.3 µM |  | 36.3 µM |  | 57.4 µM |  | 92.9 µM |  | 41.6 µM |  | 61.5 µM |
| COc1ccc2c(c1)/C(=C\c1c(-c3ccccc3)nc3sccn13)C(=O)N2 | 5.13 µM | 40.4 µM | 18.7 µM | 45.8 µM | 0.268 µM | 0.967 µM | 2.42 µM | 14.9 µM | 1.43 µM | 8.19 µM | > 100 µM | > 100 µM | 6.09 µM | 22.2 µM | 12.1 µM | > 43.6 µM | 3.52 µM | 15.6 µM | 2.11 µM | 13.4 µM |
| CC1CCCc2c1n[nH]c2CC1CC(=O)NC(=O)C1 (stereo not drawn) |  | > 100 µM |  | > 100 µM |  | > 100 µM |  | > 100 µM |  | > 100 µM |  | > 100 µM |  | > 100 µM |  | > 100 µM |  | > 100 µM |  | > 100 µM |
| O=C(O)c1nn(-c2ccc(Cl)cc2)c2c1C(=O)c1ccccc1C2=O |  | > 100 µM |  | > 100 µM |  | > 100 µM |  | > 100 µM |  | > 100 µM |  | > 100 µM |  | > 100 µM |  | > 100 µM |  | > 100 µM |  | > 100 µM |
| C/C(COc1ccc2oc(-c3ccccc3)cc(=O)c2c1)=N\O | 22 µM | 84.7 µM | 11.8 µM | 52.9 µM | 12.8 µM | 33.6 µM | 69.4 µM | > 100 µM | 25.3 µM | > 100 µM | 37.4 µM | > 100 µM | 1.38 µM | 3.34 µM | 2.89 µM | 26.6 µM | 16.8 µM | 81.4 µM | 24.3 µM | > 100 µM |
| Oc1ccc(Br)cc1C=NC1CCCCC1 |  | > 100 µM |  | > 100 µM |  | > 100 µM |  | > 100 µM |  | 48.8 µM |  | > 100 µM |  | > 100 µM |  | > 100 µM |  | > 100 µM |  | > 100 µM |
| COc1ccc(/C=C/c2cc(OC)c(OC)c(OC)c2)cc1OC |  | > 100 µM |  | > 100 µM |  | > 100 µM |  | > 100 µM |  | > 100 µM |  | > 100 µM |  | > 100 µM |  | > 100 µM |  | > 100 µM |  | > 100 µM |
| COc1cccc(/C=C2\N=C(Cl)OC2=O)c1O |  | > 100 µM |  | > 100 µM |  | > 100 µM |  | > 100 µM |  | > 100 µM |  | > 100 µM |  | > 100 µM |  | > 100 µM |  | > 100 µM |  | > 100 µM |
| C[C@]1(c2nc3c(C(N)=O)cccc3[nH]2)CCCN1 | 23.5 µM and > 75 µM | > 100 µM | 72.8 µM and > 100 µM | > 100 µM | 56.1 µM and > 58.3 µM | > 100 µM | > 100 µM | > 100 µM | 48.2 µM and 65.7 µM | > 100 µM | > 67.9 µM | > 100 µM | 66.1 µM and 97.7 µM | > 100 µM | > 100 µM | > 100 µM | > 100 µM | > 100 µM | > 100 µM | > 100 µM |
| NC(=O)c1ccc(I)c([N+](=O)[O-])c1 | 25.5 µM | > 68.1 µM | > 100 µM | > 100 µM | > 92.7 µM | > 100 µM | > 100 µM | > 100 µM | > 100 µM | > 100 µM | > 70.6 µM | > 100 µM | 44.5 µM | > 100 µM | 27.1 µM | > 65 µM | 56.1 µM | > 100 µM | > 100 µM | > 100 µM |
| CC(C)(C)OC(=O)NC(Cc1ccccc1)C(=S)N1CCCC1 (stereo not drawn) |  | > 100 µM |  | > 100 µM |  | > 100 µM |  | 91 µM |  | > 100 µM |  | > 100 µM |  | > 100 µM |  | > 100 µM |  | > 100 µM |  | > 100 µM |
